Patent publication US5416090A, “Method of treating inflammation” (priority 1992, dated 1995)

Test system: 5-HT induced paw swelling
Experiment: Serotonin (5-HT) induced acute paw inflammation
Format: in vivo, rat (Lewis)
Experimental: In one such model, the acute paw inflammation model, rats were treated with test compounds one hour prior to plantar injection of a 50 μl volume of a phlogistic. Animals were sacrificed and paw weights were determined at a prescribed time interval following the plantar injections. When 1% carrageenan was used as the phlogistic, the time interval between injection and sacrifice was 3 hours. When serotonin (5-hydroxytryptamine (5-HT)) was used, as the phlogistic agent the time interval was one hour. When substance P was used, the time interval was 30 minutes. The acute paw inflammation model is described in more detail in Example 3.
Male Lewis rats (Charles River or Harlan Sprague Dawley) weighing 180 to 250 g were used in all acute inflammatory studies. Animals were maintained on a 12:12 hour light:dark cycle and were allowed ad lib access for food (Purina lab chow) and water. Experimental groups consisted of 5 or 6 rats.
Acute paw swelling was induced by the intraplantar injection of phlogistic agents into the left hind paw, with the uninjected right hind paw serving as the comparative control. One hour after dosing with test compound, 50 μl of serotonin (Sigma; 0.005 to 0.2 mg/ml in normal saline) or substance P (Sigma; 0.01 or 0.05 mg/ml in 10% thiorphan in normal saline) or carrageenan (Marine Colloidal or Sigma Type IV; 1% in normal saline) were injected under the skin of the left hind paw, while the animal was restrained in a plastic cone. Negative controls were given 50 μl intradermal injections of normal saline (serotonin or carrageenan assays) or 10% thiorphan (substance P assays) into the left hind paw. One hour following injection of serotonin, or 30 minutes following injection of substance P, or 180 minutes following injection of carrageenan, the animals were sacrificed by CO2 asphyxiation. The right and left hind paws were cut just proximal to the tibiotarsal joint and weighed. The difference in weight between an individual animal's left and right paws were used as an indicator of tissue swelling.
As indicated above, test compounds are administered as a one hour pretreatment. In one series of experiments, 24 hour and 48 hour drug pretreatment periods were used. Test compounds were dosed intraperitoneally as a suspension in 1% carboxymethylcellulose.

SMILES: CCCN1C[C@H](CSC)C[C@@H]2c3cccc4c3c(cn4C(C)C)C[C@H]21 [Compound 1, D-1-isopropyl-6-n-propyl-8β-methylthiomethyl ergoline]
- reduction in paw swelling (3 mg/kg dosed 24 hours prior to phlogistic challenge): significant reduction in paw swelling
- reduction in paw swelling (3 mg/kg dosed 48 hours prior to phlogistic challenge): significant reduction in paw swelling
- effect on 5-HT induced paw swelling (FIG. 2): Inhibitory effect
- duration of anti-inflammatory effect (FIG. 3): longlasting
- inhibition of serotonin induced paw swelling (FIG. 3, serotonin 0.2 mg/kg, 1, 24 and 48 hour following a single injection): Inhibition
- minimal effective dose (Rattus norvegicus, ip, read-out: lowest stated dosage with a significant reduction in paw swelling): 0.1 mg/kg
